Measured values published in patent US20060117411A1, “Enhancing plant pathogen resistance via increasing BiP levels” (priority 1998, published 2006).

Experiments:
PR1 mRNA = details: same experimental system, Vidal et al, 1997; cited from earlier work
[1] = system: β-1,3-glucanase gene expression; experiment: Leaf treatment of tobacco plants, Northern blot of β-1,3-glucanase transcripts in local and systemic leaves; type: in vivo, Nicotiana tabacum; details: 3 and 8 hours of incubation
Experimental: We have shown that treatment of tobacco plants with cell wall-degrading enzymes (CDE) leads to the rapid induction of β-1,3-glucanase and other PR genes, both locally and systemically (Vidal et al, 1997). […] We used a commercial preparation of fungal CDEs instead of custom made Erwinia-derived hydrolases to increase reproducibility. One leaf from each tobacco plant was treated with CDEs and the induction of BiP gene expression was analysed in the treated (local) and untreated (systemic) leaves from the same plant. […] This induction was observed locally as well systemically with the same timing and intensity. β-1,3-glucanase transcript accumulation is detectable only after 4 hours of incubation and reaches its plateau after 8 hours as described previously (Vidal et al, 1997). Whereas BiP induction is transient, β-1,3-glucanase mRNA levels continue to be high after prolonged incubation times (24-48 hours). […] The signal involved in the systemic response of BiP gene expression must therefore be transported very rapidly from the local leaf to the distal leaves.
Even though BiP induction occurs prior to β-1,3 glucanase induction, we cannot rule out that other, as yet unidentified defence related proteins are induced more rapidly and perhaps before BiP in our experimental system. […]

[2] = system: tobacco protoplasts (GUS, cell viability); experiment: Transient expression in tobacco protoplasts (pNL200), GUS internal marker; type: cell-based, Nicotiana tabacum; details: tunicamycin 20 μg/mL, 20 hr
From the text: We have established a model system based on the comparison of protein biosynthesis in the cytosol and on the rough ER using transient expression. A plasmid was constructed (pNL200, FIG. 12A) containing two genes, one encoding the secreted barley α-amylase (Rogers, 1985) and the other encoding the cytosolic marker β-glucuronidase (GUS; Jefferson et al., 1987). α-Amylase was used to measure secretory protein biosynthesis, and GUS was used to control for transfection efficiency and overall cell viability. We compared cells under normal culture conditions with cells subjected to ER stress by treatment with tunicamycin. […]
Tobacco leaf protoplasts (from transformed or untransformed plants) were prepared, and electroporation experiments were performed as previously described (Denecke and Vitale, 1995), with minor modifications to the electroporation conditions. […] After 24 or 48 hr, the protoplasts were analysed by enzymatic assay or by protein gel blotting. […]
GUS activity in protoplasts was measured with a […] assay. six mililiters of floated protoplasts were diluted in TEX buffer (B5 salts, 250 mg/L NH4NO3, 750 mg/L CaCl2, 500 mg/L MES, and 0.4 M sucrose, pH 5.7) and were spun down by the addition of 20 mL of 250 mM NaCl. […] The absorbance was measured at 415 nm against a blank containing stop buffer that had been incubated at 37° C. for the duration of the reaction time.

| Compound | time until which PR1 continues to accumulate (shown previously) (PR1 mRNA) [h] | expression of β-1,3-glucanase, local and systemic [1] | cell viability monitored with the internal marker GUS [2] |
| --- | --- | --- | --- |
| O=C(O)c1ccccc1O [SA, Salicylic Acid] | ≤ 48 |  |  |
| tunicamycin |  | neither locally nor systemically induced | does not affect cell viability |
